The text below walks through data of patent EP2818472A1, “Imidazo[4,5-c]pyridine and pyrrolo[3,2-c]pyridine compounds as G-protein-coupled receptor kinase 5 (GRK5) modulators” (Max-Planck-Gesellschaft zur Förderung der Wissenschaften …, priority 2013, dated 2014).

This assay deals with beta-TC6 cells. The experiment in a line: Insulin HTRF assay (relative activity Ar) in beta-TC6 cells. The class given is cell-based, mouse. The conditions noted are these: Mus musculus, Beta-TC6, 4 h, insulin HTRF, supernatant of beta-TC6 cells, incubation with test compound at 37°C for 2, 3, 4h; read-out: Ar (relative activity). In outline: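 beta-TC6 cells (15k/well, seeded 24 or 48 h) washed, then exposed to compound in induction buffer (0.5% DMSO final) for 2, 3 or 4 h at 37°C.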

As to `CC(=O)Nc1ccc(Nc2cc3[nH]c(-c4cnn(C)c4)cc3cn2)cc1` [Compound 121, N-[4-[[2-(1-methylpyrazol-4-yl)-1H-pyrrolo[3,2-c]pyridin-6-yl]amino]phenyl]acetamide], the Emax is above 100%. On to `COc1cc(Nc2nc3cnc(-c4cccnc4)cc3n2C)cc(OC)c1OC` [Compound 589, 1-methyl-6-(3-pyridyl)-N-(3,4,5-trimethoxyphenyl)imidazo[4,5-c]pyridin-2-amine], for which the Emax fell in the range of 50 to 100%. For `c1cncc(-c2cc3cnc(Nc4ccncc4)cc3[nH]2)c1` [Compound 76, 2-(3-pyridyl)-N-(4-pyridyl)-1H-pyrrolo[3,2-c]pyridin-6-amine] the value was 30 to 50%. `COc1cccc(-c2nc3c(NCCc4ccccn4)nccc3[nH]2)c1` [Compound 371, 2-(3-methoxyphenyl)-N-[2-(2-pyridyl)ethyl]-1H-imidazo[4,5-c]pyridin-4-amine]: the Emax lay in the range of 30 to 50%. As for `CN1CCN(c2ccc(Nc3nccc4[nH]c(-c5cccnc5)cc34)cc2)CC1` [Compound 235, N-[4-(4-methylpiperazin-1-yl)phenyl]-2-(3-pyridyl)-1H-pyrrolo[3,2-c]pyridin-4-amine], the Emax was in the range of 50 to 100%.

`COc1ccc(Nc2cc3[nH]c(-c4cccc(N)c4)cc3cn2)cn1` [Compound 1, 2-(3-aminophenyl)-N-(6-methoxy-3-pyridyl)-1H-pyrrolo[3,2-c]pyridin-6-amine]: the Emax was in the range of 50 to 100%. `COc1cc(Nc2nccc3[nH]c(-c4cccc(F)c4)nc23)cc(OC)c1OC` [Compound 402, 2-(3-fluorophenyl)-N-(3,4,5-trimethoxyphenyl)-1H-imidazo[4,5-c]pyridin-4-amine]: the Emax was 30 to 50%. `CNc1nc2cnc(-c3ccc4ccccc4c3)cc2n1Cc1ccc(OC)c(OC)c1` [Compound 668, 1-[(3,4-dimethoxyphenyl)methyl]-N-methyl-6-(2-naphthyl)imidazo[4,5-c]pyridin-2-amine]: the Emax was 50 to 100%. For `CNc1nc2cnc(Nc3ccc(OC)cc3)cc2n1-c1ccccc1` [Compound 509, N6-(4-methoxyphenyl)-N2-methyl-1-phenyl-imidazo[4,5-c]pyridine-2,6-diamine] the value was 50 to 100%; for `COc1ccccc1-c1cc2c(Nc3cccnc3)nccc2n1C` [Compound 303, 2-(2-methoxyphenyl)-1-methyl-N-(3-pyridyl)pyrrolo[3,2-c]pyridin-4-amine], 30 to 50%. For `Sc1nc2cnccc2n1-c1ccccc1` [Compound 741, 1-phenylimidazo[4,5-c]pyridine-2-thiol], the Emax was in the range of 50 to 100%.

In the case of `COc1ccc(Nc2cc3c(cn2)cc(-c2cccnc2)n3C)cn1` [Compound 86, N-(6-methoxy-3-pyridyl)-1-methyl-2-(3-pyridyl)pyrrolo[3,2-c]pyridin-6-amine], the Emax lay in the range of 50 to 100%.

`Cc1cccc(-c2nc3c(Nc4cccc(NS(C)(=O)=O)c4)nccc3[nH]2)c1` [Compound 439, N-[3-[[2-(m-tolyl)-1H-imidazo[4,5-c]pyridin-4-yl]amino]phenyl]methanesulfonamide]: the Emax is 30 to 50%.

For the compound `CS(=O)(=O)Nc1cccc(Nc2nccc3[nH]c(-c4ccc(O)cc4)nc23)c1` [Compound 366, N-[3-[[2-(4-hydroxyphenyl)-1H-imidazo[4,5-c]pyridin-4-yl]amino]phenyl]methanesulfonamide], the Emax lay in the range of 30 to 50%. For the compound `c1ccc(-c2nc3c(NCc4ccncc4)nccc3[nH]2)cc1` [Compound 335, 2-phenyl-N-(4-pyridylmethyl)-1H-imidazo[4,5-c]pyridin-4-amine], the Emax lay within 0 to 30%. `CN(C)C(=O)c1ccc(-c2cc3c(Nc4cccc(NS(C)(=O)=O)c4)nccc3n2C)cc1` [Compound 225, 4-[4-[3-(methanesulfonamido)anilino]-1-methyl-pyrrolo[3,2-c]pyridin-2-yl]-N,N-dimethyl-benzamide]: the Emax lay within 30 to 50%.

For the compound `COc1ccc(Nc2cc3c(cn2)nc(-c2ccccc2)n3C)cn1` [Compound 704, N-(6-methoxy-3-pyridyl)-1-methyl-2-phenyl-imidazo[4,5-c]pyridin-6-amine], the Emax fell in the range of 30 to 50%. Regarding `CS(=O)(=O)Nc1cccc(Nc2cc3[nH]c(-c4cccc(C(F)(F)F)c4)cc3cn2)c1` [Compound 5, N-[3-[[2-[3-(trifluoromethyl)phenyl]-1H-pyrrolo[3,2-c]pyridin-6-yl]amino]phenyl]methanesulfonamide], the Emax lay within 0 to 30%. On to `CC(=O)Nc1ccc(Nc2nccc3[nH]c(-c4ccsc4)cc23)cc1` [Compound 249, N-[4-[[2-(3-thienyl)-1H-pyrrolo[3,2-c]pyridin-4-yl]amino]phenyl]acetamide], for which the Emax was above 100%. On to `CC(=O)c1cccc(Nc2nccc3[nH]c(-c4ccsc4)cc23)c1` [Compound 267, 1-[3-[[2-(3-thienyl)-1H-pyrrolo[3,2-c]pyridin-4-yl]amino]phenyl]ethanone], for which the Emax was in the range of 50 to 100%. In the case of `CNc1nc2cnc(-c3ccc4c(c3)OCO4)cc2n1-c1cccc(F)c1` [Compound 885, 6-(1,3-benzodioxol-5-yl)-1-(3-fluorophenyl)-N-methyl-imidazo[4,5-c]pyridin-2-amine] it was 0 to 30%. In the case of `COc1ccc(Nc2cc3c(cn2)cc(-c2cccc(N(C)C(C)=O)c2)n3C)cc1OC` [Compound 160, N-[3-[6-(3,4-dimethoxyanilino)-1-methyl-pyrrolo[3,2-c]pyridin-2-yl]phenyl]-N-methyl-acetamide], the Emax was in the range of 50 to 100%. In the case of `CC(=O)c1cccc(Nc2cc3c(cn2)nc(NCc2ccccc2)n3C)c1` [Compound 628, 1-[3-[[2-(benzylamino)-1-methyl-imidazo[4,5-c]pyridin-6-yl]amino]phenyl]ethanone], the Emax is 30 to 50%. Turning to `CNc1nc2cnc(Nc3ccc(OC)cc3C)cc2n1CC1CC1` [Compound 760, 1-(cyclopropylmethyl)-N6-(4-methoxy-2-methyl-phenyl)-N2-methyl-imidazo[4,5-c]pyridine-2,6-diamine], the Emax was 0 to 30%. With `Cn1c(-c2ccsc2)cc2c(Nc3cccnc3)nccc21` [Compound 276, 1-methyl-N-(3-pyridyl)-2-(3-thienyl)pyrrolo[3,2-c]pyridin-4-amine], the Emax is 30 to 50%. In the case of `CNc1nc2cnc(Nc3ccc(OC)cc3)cc2n1Cc1ccccc1` [Compound 531, 1-benzyl-N6-(4-methoxyphenyl)-N2-methyl-imidazo[4,5-c]pyridine-2,6-diamine] it was 30 to 50%; in that of `CNc1nc2cnc(Nc3ccc(O)cc3)cc2n1Cc1ccc(OC)c(OC)c1` [Compound 663, 4-[[1-[(3,4-dimethoxyphenyl)methyl]-2-(methylamino)imidazo[4,5-c]pyridin-6-yl]amino]phenol], 50 to 100%.

Turning to `COc1cccc(Nc2cc3[nH]c(-c4cn[nH]c4)cc3cn2)c1` [Compound 110, N-(3-methoxyphenyl)-2-(1H-pyrazol-4-yl)-1H-pyrrolo[3,2-c]pyridin-6-amine], the Emax was above 100%. Take `Cn1c(NCC2CCCO2)nc2cnc(-c3ccc(N4CCOCC4)cc3)cc21` (centres unmarked) [Compound 640, 1-methyl-6-(4-morpholinophenyl)-N-(tetrahydrofuran-2-ylmethyl)imidazo[4,5-c]pyridin-2-amine]: the Emax was in the range of 30 to 50%. As for `Cc1cccc(CNc2nc3cnc(Nc4cccc(O)c4)cc3n2C)c1` [Compound 585, 3-[[1-methyl-2-(m-tolylmethylamino)imidazo[4,5-c]pyridin-6-yl]amino]phenol], the Emax was 50 to 100%. Consider `COc1cc(Nc2cc3c(cn2)cc(-c2cccnc2)n3C)cc(OC)c1OC` [Compound 82, 1-methyl-2-(3-pyridyl)-N-(3,4,5-trimethoxyphenyl)pyrrolo[3,2-c]pyridin-6-amine], for which the Emax lay in the range of 50 to 100%. As for `c1ccc(CNc2nccc3[nH]c(-c4ccncc4)nc23)cc1` [Compound 428, N-benzyl-2-(4-pyridyl)-1H-imidazo[4,5-c]pyridin-4-amine], the Emax was in the range of 30 to 50%.

Turning to `Cc1cccc(Nc2cc3c(cn2)nc(-c2ccco2)n3C)c1` [Compound 709, 2-(2-furyl)-1-methyl-N-(m-tolyl)imidazo[4,5-c]pyridin-6-amine], the Emax fell in the range of 50 to 100%. For the compound `Cc1cccc(Nc2cc3[nH]c(-c4ccc(C(=O)N(C)C)cc4)cc3cn2)c1` [Compound 28, N,N-dimethyl-4-[6-(3-methylanilino)-1H-pyrrolo[3,2-c]pyridin-2-yl]benzamide], the Emax lay in the range of 50 to 100%. As to `CNc1nc2cnc(Nc3ccc(C(=O)N(C)C)cc3)cc2n1-c1ccccc1` [Compound 515, N,N-dimethyl-4-[[2-(methylamino)-1-phenyl-imidazo[4,5-c]pyridin-6-yl]amino]benzamide], the Emax was in the range of 50 to 100%. On to `COc1ccc(Nc2cc3c(cn2)cc(-c2cccnc2)n3C)c(OC)c1` [Compound 83, N-(2,4-dimethoxyphenyl)-1-methyl-2-(3-pyridyl)pyrrolo[3,2-c]pyridin-6-amine], for which the Emax fell in the range of 50 to 100%. Take `Nc1cccc(-c2cc3cnc(Nc4cccnc4)cc3[nH]2)c1` [Compound 2, 2-(3-aminophenyl)-N-(3-pyridyl)-1H-pyrrolo[3,2-c]pyridin-6-amine]: the Emax was 30 to 50%.

Turning to `COc1cc(OC)cc(-c2cc3c(Nc4ccc(C(N)=O)cc4)nccc3[nH]2)c1` [Compound 290, 4-[[2-(3,5-dimethoxyphenyl)-1H-pyrrolo[3,2-c]pyridin-4-yl]amino]benzamide], the Emax was in the range of 50 to 100%. As to `COc1ccc(Nc2nccc3[nH]c(-c4ccc(C)cc4)nc23)cc1OC` [Compound 378, N-(3,4-dimethoxyphenyl)-2-(p-tolyl)-1H-imidazo[4,5-c]pyridin-4-amine], the Emax fell in the range of 50 to 100%. For the compound `COc1ccc(Nc2cc3c(cn2)nc(NCc2ccccc2)n3C)cc1` [Compound 621, N2-benzyl-N6-(4-methoxyphenyl)-1-methyl-imidazo[4,5-c]pyridine-2,6-diamine], the Emax lay in the range of 50 to 100%. With `Cc1cccc(Nc2cc3c(cn2)cc(-c2cccnc2)n3C)c1` [Compound 90, 1-methyl-N-(m-tolyl)-2-(3-pyridyl)pyrrolo[3,2-c]pyridin-6-amine], the Emax lay in the range of 30 to 50%.
